Experimental data reported in article PMC12847965 (Nature Communications, 2025).

Target: T1, E. coli GlpG (Escherichia coli, UniProt P09391)
T1 sequence (P09391 1-276): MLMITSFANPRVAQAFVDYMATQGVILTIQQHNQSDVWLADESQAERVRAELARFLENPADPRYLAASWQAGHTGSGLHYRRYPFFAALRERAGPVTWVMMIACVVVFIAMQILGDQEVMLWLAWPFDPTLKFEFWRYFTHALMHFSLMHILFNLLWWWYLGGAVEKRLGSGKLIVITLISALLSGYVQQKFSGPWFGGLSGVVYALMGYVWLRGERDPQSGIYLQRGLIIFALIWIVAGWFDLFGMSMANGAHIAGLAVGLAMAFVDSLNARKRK
Test: FRET peptide cleavage assay
Assay type: biochemical

- IC50: 296 µM
SMILES: Cc1ccc(S(=O)(=O)N[C@@H](Cc2ccccc2)C(=O)CCl)cc1 [tosyl phenylalanyl chloromethylketone]
